Reference: patent US5955508A, “Method for the enhancement of lymphocyte activity against opportunistic microbial pathogens” (priority 1996, dated 1999)

How the values were obtained:
[1] = test system: IL-2 in CD4+ (CD8-) T cells; experiment: IL-2 production by CD4+ (CD8-) T cells, flow cytometry; format: cell-based, human; conditions: for % Positive Cells (IL-2 immunopositive), d-FEN / IL-2 Titer, d-FEN: CD4+ (CD8-) T cells, Mean ± SEM
Excerpt: (§1) The T lymphocytes analyzed were obtained from 20 HIV+ patients (9 females and 11 males, 25-48 years of age). The patients were diagnosed as being HIV+ within the past 0.5-9 years, and 15 are being treated with antiviral drugs. The subjects' study identification number (indicates the order in which bloods were drawn), CD4+ and CD8+ counts (determined March, 1996, as part of the present study), age, sex, date of diagnosis, and pharmacotherapy are provided in Table 1.
(§2) The experimental protocol for this project is illustrated in Table A. Note that the cultures were exposed to two doses (5 and 50 ng/ml) of d-FEN in the mitogenesis assays, whereas only one dose (50 ng/ml) was used in the antifungal and cytokine release assays.
(§3) Cytokine Profiles. Peripheral mononuclear cells were isolated by the Ficoll-Hypaque method and washed twice with RPMI-1640 medium. Cell suspensions were made at 1×10^6 /ml and the cells activated with interleukin-2 (IL-2) for 18 h or 4 days at 37° C. under 5% CO^2 +95% air. Monensin (1 nM) then was added to the culture to block secretion of cytokines, and the cultures allowed to continue for another 3 h. The cells were washed twice with PBS+1% fetal calf serum (FCS) with 0.1% saponin+0.1% sodium azide, then washed once with PBS-1% FCS and stained with anti-cytokine MAb-FL conjugate for 30 min. Following two washes, the cells were analyzed by flow cytometry for production of IL-2, IFN-γ and TNF-α. The MAbs-FL conjugates were obtained from Pharmingen (San Diego, Calif.). Potential effects of on cytokine production were evaluated (a) as increases in the percentage of a T cell subset which produce the respective cytokine; and, (b) as increases in the amount of cytokine produced by each subset. The latter were analyzed as a shift of the cytokine histograms.
(§4) The data were analyzed by a one- or two-way analysis of variance (ANOVA) with repeated measures where appropriate ([…] version 1; Jandel, San Rafael, Calif.). Significant main effects were subjected to post hoc analysis using the Student-Newman Keuls All Pairwise Multiple Comparisons test or the Mann-Whitney U test.

TNF-α in CD8+ T cells = experiment: TNF-α production by CD8+ T cells, flow cytometry; format: cell-based, human; conditions: 50 ng/ml; for % Positive Cells (TNF-α immunopositive), d-FEN / TNF-α Titer, d-FEN: Mean ± SEM
Excerpt: as §1, §2, §3, §4

K562 human tumor cells = experiment: Natural killer cell cytotoxicity of human PBMC against K562 tumor cells in vitro; format: cell-based
Method: Prior to conducting the above experiment, we examined the dose dependent effects of d-FEN on the ability of human PBMC obtained from five healthy volunteers (person Caucasians) to kill human K562 tumor cells in vitro. The potential cytotoxic enhancing effects of d-FEN and d-norFEN were compared using PBMC from two of the five human donors.
For assessment of immunological parameters of human PBMC, venous blood as aseptically drawn into sterile 10 ml tubes containing 20 U/ml preservative free heparin, diluted with an equal volume of Hank's Balanced Salt Solution (HBSS), layered over Lymphocyte Separation Medium (LSM, Bionetics, Kensington, Md.) and centrifuged at 1,000 ×g for 30 min. After centrifugation, the mononuclear cell layer was recovered from the interface and washed twice in HBSS and enumerated.
The K562 cell line originated from a chronic myelogenous leukemia patient and was obtained from Dr. T. Ellis (Director, Cellular Immunology Laboratory, LUMC). The K562 cells used for assessment of cytotoxic activity were maintained in long term cultures using Corning 25 cm^2 tissue culture flasks (Corning Glass Works, Corning, N.Y.) containing RPMI 1640 (Gibco Laboratories, Grand Island, N.Y.) supplemented with low LPS 10% fetal bovine serum (FBS; Gibco), 100 units/ml penicillin, 100 μg/ml streptomycin (Whittaker M. A. Bioproducts, Walkersville, Md.), 0.1 mM non-essential amino acids, and 2 mM L-glutamine (Gibco). This medium was used throughout, except where noted, and is referred to as "culture medium". The K562 cells were grown in suspension and were passaged three times per week by transfer of 10^6 K562 cells into a flask containing 10 ml of fresh culture medium. The K562 cells injected into the SCID mice were supplemented with fresh medium at a 1:3 dilution the day before administration. They were washed once in medium, pelleted by centrifugation at 500 ×g for 10 min., then resuspended at a concentration of 5×10^7. Subsequently, 0.2 ml (1×10^7 cells) of the cell suspension was injected (i.p.) into each SCID mouse. The K562 cells were administered to the animals four days after the injection of PBMC.
The K562 tumor cell lines maintained in vitro were washed once in culture medium, pelleted by centrifugation at 500×g for 10 min and resuspended in approximately 0.1 ml of culture medium. Subsequently, 100 μCi of [^51 Cr] (New England Nuclear, Boston, Mass.) was added to 1×10^5 cells in a final volume of 0.2 ml. The cells were incubated at 37° C. with 5% CO2 for 1 h with agitation every 10 min, then washed 3 times in HBSS, resuspended to 5×10^4 cells/ml in culture medium and 0.1 ml (5×10^3) aliquoted to each well of a 96 well round bottom assay plate (Corning Glass Works, Corning, N.Y.). Radiolabelled K562 was cultured for 4 h with lymphocytes at effector to target ratios ranging from 50:1 to 6:1. Following 4 h of culture the media was removed using a Skatron harvesting press (Skatron Inc., Sterling, Va.) and associated radioactivity determined. Maximum release was obtained by adding 0.05% Nonidet P-40 (Sigma Chemical Co., St. Louis, Mo.).
The results have been expressed as % cytotoxicity and calculated by the formula: % cytotoxicity=[(experimental DPM-minimum DPM)/(maximum DPM-minimum DPM)]×100.
All experimental means were calculated from triplicate values. Lytic units (LU) were calculated using a computer program written by David Coggins, FCRC, Frederick, Md.

IL-2 in CD8+ T cells = experiment: IL-2 production by CD8+ T cells, flow cytometry; format: cell-based, human; conditions: for % Positive Cells (IL-2 immunopositive), d-FEN / IL-2 Titer, d-FEN: Mean ± SEM
Excerpt: as §1, §2, §3, §4

[2] = Homo sapiens, T-cell, read-out: percent increase of IL-2 titer over VEH
[3] = 50 ng/ml, CD8+ T cells, non-AIDS HIV+

SMILES: CCN[C@@H](C)Cc1cccc(C(F)(F)F)c1 [d-FEN]
- % Positive Cells (IL-2 immunopositive), d-FEN ([1]; 50 ng/ml, AIDS): 9 ± 4%
- IL-2 Titer, d-FEN ([1]; 50 ng/ml, AIDS): 213 ± 33 geometric mean channel fluorescence
- % Positive Cells (IL-2 immunopositive), d-FEN ([1]; 50 ng/ml, non-AIDS HIV+): 32 ± 3%
- IL-2 Titer, d-FEN ([1]; 50 ng/ml, non-AIDS HIV+): 308 ± 27 geometric mean channel fluorescence
- effect on IL-2 levels in words ([1]; 50 ng/ml, CD4+ T cells, non-AIDS): not in the non-AIDS patients' CD4+ T cells
- activation at 0.05 µg/mL [1, 2]: 55%
- effect on TNF-α titer in words (TNF-α in CD8+ T cells): No significant effects on TNF-α titer were observed
- % Positive Cells (TNF-α immunopositive), d-FEN (TNF-α in CD8+ T cells; AIDS): 62 ± 4%
- TNF-α Titer, d-FEN (TNF-α in CD8+ T cells; AIDS): 329 ± 57 geometric mean channel fluorescence
- % Positive Cells (TNF-α immunopositive), d-FEN (TNF-α in CD8+ T cells; non-AIDS HIV+): 69 ± 3%
- TNF-α Titer, d-FEN (TNF-α in CD8+ T cells; non-AIDS HIV+): 392 ± 47 geometric mean channel fluorescence
- activation at 0.05 µg/mL (TNF-α in CD8+ T cells; Homo sapiens, T-cell, AIDS, read-out: percent increase of TNF-α+ cells over VEH): 24%
- Percent Change in Cytotoxicity (Mean ± SEM) (K562 human tumor cells; 0.25 ng/ml): 19 ± 2%
- percent increase in cytotoxicity (K562 human tumor cells; 0.25 ng/ml, DONOR #1): 22%
- percent increase in cytotoxicity (K562 human tumor cells; 0.25 ng/ml, DONOR #2): 19%
- Percent Change in Cytotoxicity (Mean ± SEM) (K562 human tumor cells; 0.50 ng/ml): 28 ± 4%
- percent increase in cytotoxicity (K562 human tumor cells; 0.50 ng/ml, DONOR #1): 36%
- percent increase in cytotoxicity (K562 human tumor cells; 0.50 ng/ml, DONOR #2): 21%
- Percent Change in Cytotoxicity (Mean ± SEM) (K562 human tumor cells; 1.00 ng/ml): 16 ± 3%
- percent increase in cytotoxicity (K562 human tumor cells; 1.00 ng/ml, DONOR #1): 23%
- percent increase in cytotoxicity (K562 human tumor cells; 1.00 ng/ml, DONOR #2): 17%
- Percent Change in Cytotoxicity (Mean ± SEM) (K562 human tumor cells; 4.00 ng/ml): 11 ± 5%
- Percent Change in Cytotoxicity (Mean ± SEM) (K562 human tumor cells; 20.00 ng/ml): -33 ± 5%
- Percent Change in Cytotoxicity (Mean ± SEM) (K562 human tumor cells; 50.00 ng/ml): -53 ± 6%
- Percent Change in Cytotoxicity (Mean ± SEM) (K562 human tumor cells; 100.00 ng/ml): -87 ± 2%
- dose dependent effect on cytotoxicity in words (K562 human tumor cells; PBMC of five healthy volunteers, p<0.001): low doses of d-FEN enhanced whereas higher doses reduced cytotoxicity
- d-FEN vs d-norFEN effect on cytotoxicity in words (K562 human tumor cells; PBMC of two donors): virtually identical effects
- effect on capacity of human NK cells to kill K562, in words (K562 human tumor cells; conclusion): augments the capacity of human NK cells to kill the human tumor cell line, K562
- % Positive Cells (IL-2 immunopositive), d-FEN (IL-2 in CD8+ T cells; 50 ng/ml, CD8+ T cells, AIDS): 18 ± 4%
- IL-2 Titer, d-FEN (IL-2 in CD8+ T cells; 50 ng/ml, CD8+ T cells, AIDS): 147 ± 34 geometric mean channel fluorescence
- effect on IL-2 titer in words (IL-2 in CD8+ T cells; 50 ng/ml, CD8+ T cells, non-AIDS): not from the non-AIDS patients
- % Positive Cells (IL-2 immunopositive), d-FEN (IL-2 in CD8+ T cells; [3]): 36 ± 3%
- IL-2 Titer, d-FEN (IL-2 in CD8+ T cells; [3]): 220 ± 28 geometric mean channel fluorescence
- activation at 0.05 µg/mL (IL-2 in CD8+ T cells; [2]): 40%
